The record followed here is patent US11485720B2, “Anti-infective agents” (University of Dundee, priority 2016, dated 2022).

Experiment [1] has as its system Plasmodium falciparum strain 3D7. Kind of experiment: Plasmodium falciparum 3D7 in vitro growth inhibition (SYBRgreen I). It counts as cell-based. The following applies: Plasmodium falciparum, 3D7; read-out: pEC50 for Pf 3D7 (converted). The procedure: Parasite Cultures and Cytotoxicity Assay Methodology for Plasmodium falciparum. […] Growth inhibition of the Plasmodium falciparum cultures was quantified in a 10-point dose response curve with a 1 in 3 dilution series from a top assay concentration of 50 μM. This 384 well plate based fluorescence assay utilises the binding of SYBRgreen I (Thermo Fisher Scientific/Invitrogen cat. no. S7585) to double stranded DNA, which greatly increases the fluorescent signal at 528 nm after excitation at 485 nm. Mefloquine was used as a drug control to monitor the quality of the assay (Z′=0.6 to 0.8, where Z′ is a measure of the discrimination between the positive and negative controls on a screen plate). Dose-response curves were determined from a minimum of 3 independent experiments. Compound bioactivity was expressed as EC50, the effective concentration of compound causing 50% parasite death.

The test system of experiment [2] is Hep G2. As to the kind of experiment: Hep G2 in-vitro cytotoxicity assay. The format is cell-based. The conditions noted are these: Homo sapiens, HepG2, read-out: Hs HEPG2 pEC50 (converted). The source says: In-vitro cytotoxicity studies can be carried out using Hep G2 (Human hepatocyte carcinoma, HPACC cat. no. 85011430) used as indicators for general mammalian cell toxicity. Hep G2 in-vitro cytotoxicity can be assessed using the assay procedure as described in “Use of a human-derived liver cell line for the detection of cytoprotective, antigenotoxic and cogenotoxic agents”, Volker Mersch-Sundermann, Siegfried Knasmüller, Xin-jiang Wu, Firouz Darroudi, Fekadu Kassie. J. Tox 198 (2004) 329-340) the contents of which are incorporated herein by reference.

The test system of experiment [3] is Trypanosoma cruzi. Kind of experiment: Trypanosoma cruzi intracellular imaging assay. The following applies: read-out: Trypanosoma cruzi pEC50 (converted). It counts as cell-based. The source says: Assay Method for Measurement of In Vitro Inhibition of Trypanosoma cruzi. […] These experiments were run in accordance with the method of Pena et. al., Scientific Reports 5, Article number: 8771 (2015). Results from these experiments are provided in the Experimental Results hereinafter.

Experiment [4] addresses T1, Plasmodium falciparum lysyl t-RNA synthetase (Pf-KRS1) (Plasmodium falciparum, UniProt Q8IDJ8).
T1 construct: Pf KRS1-; made in house; host or cells: E. coli BL21 (DE3)
As to the kind of experiment: Pf-KRS1 inhibition biochemical assay (Kinase-Glo, ATP depletion). The following applies: read-out: Pf-KRS pIC50 (converted). An excerpt: Plasmodium falciparum Lysine tRNA Synthetase (KRS1) Biochemical Assay Methodology.
Lysine tRNA Synthetase (KRS1) is an enzyme which catalyses the esterification of L-Lysine to the appropriate transfer ribonucleic acid (tRNA), to form an aminoacyl-tRNA. Once the tRNA is charged, a ribosome transfers the amino acid from the tRNA onto a growing peptide, according to the genetic code.
The substrates of this reaction are L-lysine, and adenosine triphosphate (ATP), the overall reaction is: amino acid+tRNA+ATP→aminoacyl-tRNA+AMP+PPi
In this overall reaction AMP is adenosine monophosphate and PP; is inorganic pyrophosphate. The reaction progression in a biochemical assay can be tracked by the depletion of one of the substrates, in the case of this invention, ATP. This was done using the proprietary assay kit, Kinase Glo® Assay which is a luminescent kinase assay platform suitable for monitoring kinase activities using up to 10 μm ATP which is commercially available from the Promega Corporation of Madison, Wis., USA. The Kinase-Glo® Assay was performed in a single well of a multiwell plate by adding a volume of Kinase-Glo® Reagent equal to the volume of a completed kinase reaction and measuring luminescence. The resulting luminescent signal is correlated with the amount of ATP present and is inversely correlated with the amount of kinase activity. As such by use of this assay methodology a reduction of the luminescent signal is relative to the reduction in ATP as the reaction progresses. A compound which inhibits the action of KRS will show no drop in the luminescent signal from assay controls.
Assays were performed using both Plasmodium falciparum and human KRS to assess any selectivity of various test compounds.
Test compounds were solubilized in DMSO at a top concentration of 10 mM and serially diluted 1 in 3 to achieve a range of final assay concentrations of 50 μM to 2.5 nM in 10 μl reaction volume.
KRS was diluted to a working concentration of 75 nM in assay buffer (25 mM HEPES, 25 mM KOH, 10 mM MgCl2.6H2O, 50 mM KCl), and the following ‘Master Mix’ prepared in assay buffer: 0.1 mg/ml BSA, 250 μM DTT, 200 μM Spermine, 0.05% NP-40, ATP 3 μM for Pf KRS1 (4 μM for Hs KRS1), 0.4 mg/ml tRNA from Yeast, 60 μM L-Lysine, 0.5 U/ml Pyrophosphatase.
Plates were incubated at room temperature for 5 h for Pf KRS (2.5 hrs for HsKRS), then the assay stopped by the addition of 10 μl of The Kinase-Glo® Reagent Assay was performed in a single well of a multiwell plate by adding a volume of Kinase-Glo® Reagent which is commercially available from the Promega Corporation of Madison, Wis., USA. The plates were incubated in the dark for a further 15 mins before being read for luminescence on a BMG PHERAstar® FSX plate reader which is a multi-mode reader for use in high-throughput screening available from BMG Labtech if Cary, N.C., USA. Data were analysed by calculating the percentage inhibition compared to the maximum and minimum assay controls. Concentration effect curves were fitted using nonlinear regression within ActivityBase and IC50 values were determined using standard protocols.
A general note: Kinase-Glo reads ATP consumption through a luciferase reaction.

Experiment [5] deals with Cryptosporidium parvum. Kind of experiment: In vitro Crytosporidium inhibition assay. The format is cell-based. The conditions noted are these: Cryptosporidium parvum; read-out: Cryptosporidium parvum pEC50 (converted). An excerpt:
Assay Method for Measurement of In Vitro Inhibition of Crytosporidium.
These experiments were run in accordance with the method of Besssoff et. al. Antimicrob. Agents Chemother. 2013, 57:1804-1814. Results from these experiments are provided in the Experimental Results hereinafter.

Experiment [6] has as its target T2, Mycobacterium tuberculosis lysyl t-RNA synthetase (Mtb KRS) (Mycobacterium tuberculosis, UniProt P9WFU9).
T2 construct: MtbKRS1-; made in house; host or cells: E. coli BL21 (DE3)
Kind of experiment: Mtb KRS inhibition biochemical assay (BioMol Green). The conditions noted are these: read-out: Mtb KRS pIC50 (converted).

T2 sequence (P9WFU9 whole entry): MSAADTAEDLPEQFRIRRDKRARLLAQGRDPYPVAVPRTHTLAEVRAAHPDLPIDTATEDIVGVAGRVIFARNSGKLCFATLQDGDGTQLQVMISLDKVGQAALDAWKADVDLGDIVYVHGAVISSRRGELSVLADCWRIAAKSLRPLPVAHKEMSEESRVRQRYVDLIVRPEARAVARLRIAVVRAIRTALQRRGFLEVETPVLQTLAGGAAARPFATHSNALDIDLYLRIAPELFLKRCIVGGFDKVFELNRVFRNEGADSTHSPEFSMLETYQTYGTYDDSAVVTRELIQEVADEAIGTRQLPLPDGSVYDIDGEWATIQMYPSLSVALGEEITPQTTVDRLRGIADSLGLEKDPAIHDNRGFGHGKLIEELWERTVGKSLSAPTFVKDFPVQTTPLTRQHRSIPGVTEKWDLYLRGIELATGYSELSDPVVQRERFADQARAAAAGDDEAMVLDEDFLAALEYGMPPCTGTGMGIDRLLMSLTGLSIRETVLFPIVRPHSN
T1 sequence (Q8IDJ8 entry or part of it, looked up, natural form): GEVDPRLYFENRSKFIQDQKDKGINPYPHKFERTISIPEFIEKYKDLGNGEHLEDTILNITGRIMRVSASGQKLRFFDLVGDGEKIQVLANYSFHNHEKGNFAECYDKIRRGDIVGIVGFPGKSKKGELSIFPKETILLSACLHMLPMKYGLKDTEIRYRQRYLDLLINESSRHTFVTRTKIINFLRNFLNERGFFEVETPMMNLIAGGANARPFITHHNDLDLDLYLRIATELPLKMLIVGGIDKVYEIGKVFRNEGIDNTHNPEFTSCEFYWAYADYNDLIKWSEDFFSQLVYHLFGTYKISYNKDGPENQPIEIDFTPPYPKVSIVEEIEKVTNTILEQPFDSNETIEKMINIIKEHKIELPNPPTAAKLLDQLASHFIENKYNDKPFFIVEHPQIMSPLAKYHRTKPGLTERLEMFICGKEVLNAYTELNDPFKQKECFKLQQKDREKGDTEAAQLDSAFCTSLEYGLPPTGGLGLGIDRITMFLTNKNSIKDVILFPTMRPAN

On to `Nc1cccc2c(=O)cc(C(=O)NCC3CCCCC3)oc12` [Example 83, 8-Amino-N-(cyclohexylmethyl)-4-oxo-4H-chromene-2-carboxamide], for which the EC50 was 20 nM in experiment [1], 7940 nM in experiment [2] and 158 nM in experiment [3]. In addition, the IC50 in experiment [4] was 50.1 nM.
Regarding `Nc1cc(F)cc2c(=O)cc(C(=O)NCC3CCC(F)(F)C3)oc12` (stereo not drawn) [Example 95, 8-amino-N-[(3,3-difluorocyclopentyl)methyl]-6-fluoro-4-oxo-4H-chromene-2-carboxamide], the results for the EC50 in experiment [1] and in experiment [3] were 50.1 nM and 63.1 nM, respectively.
With `O=C(NC1CCCC(F)(F)C1)c1cc(=O)c2cc(F)cc(O)c2o1` (stereo not drawn) [Example 76C, N-(3,3-Difluorocyclohexyl)-6-fluoro-8-hydroxy-4-oxo-4H-chromene-2-carboxamide], the EC50 in experiment [1] was 1000 nM; in experiment [2], 50100 nM; in experiment [5] it was 2000 nM. In addition, the IC50 was 15800 nM in experiment [6] and 316 nM in experiment [4].
For the molecule `Nc1cc(F)cc2c(=O)cc(C(=O)NCC3CCCCC3)oc12` [Example 99, 8-amino-N-(cyclohexylmethyl)-6-fluoro-4-oxo-chromene-2-carboxamide], the EC50 was 10 nM in experiment [1], 5010 nM in experiment [2], 15.8 nM in experiment [5] and 25.1 nM in experiment [3]. In addition, the IC50 in experiment [4] is 50.1 nM.
With `O=C(NC1CCCCC1)c1cc(=O)c2cc(F)cc(O)c2o1` [Example 76B, N-cyclohexyl-6-fluoro-8-hydroxy-4-oxo-chromene-2-carboxamide], the EC50 in experiment [1] was 1580 nM. Further, the IC50 in experiment [6] was 7940 nM; in experiment [4] it was 398 nM.
As for `O=C(NCC1CCC1)c1cc(=O)c2cc(F)cc(O)c2o1` [Example 76E, N-(cyclobutylmethyl)-6-fluoro-8-hydroxy-4-oxo-4H-chromene-2-carboxamide], in experiment [1], the EC50 is 794 nM. For the same molecule, the IC50 was 31600 nM in experiment [6] and 251 nM in experiment [4].
As to `Nc1cc(F)cc2c(=O)cc(C(=O)NCC3CCC(F)(F)CC3)oc12` [Example 94, 8-amino-N-[(4,4-difluorocyclohexyl)methyl]-6-fluoro-4-oxo-4H-chromene-2-carboxamide], the EC50 in experiment [1] and in experiment [3] was 50.1 nM throughout.
`O=C(NCC1(O)CCCCC1)c1cc(=O)c2cc(F)cc(F)c2o1` [Example 55, 6,8-difluoro-N-[(1-hydroxycyclohexyl)methyl]-4-oxo-chromene-2-carboxamide]: the EC50 is 398 nM in experiment [1], 50100 nM in experiment [2] and 501 nM in experiment [5]. Further, in experiment [4], the IC50 is 200 nM.
As for `O=C(NCC1CCCCC1)c1cc(=O)c2cccc(O)c2o1` [Example 12, N-(cyclohexylmethyl)-8-hydroxy-4-oxo-chromene-2-carboxamide], the EC50 is 25100 nM in experiment [2] and 316 nM in experiment [3].
`O=C(NCC1(O)CCCCC1)c1cc(=O)c2ccccc2o1` [Example 27, N-[(1-hydroxycyclohexyl)methyl]-4-oxo-chromene-2-carboxamide]: the EC50 was 251 nM in experiment [1], 50100 nM in experiment [2] and 316 nM in experiment [5]. Moreover, in experiment [4], the IC50 was 126 nM.
The corresponding values for `CS(=O)(=O)Nc1cccc2c(=O)cc(C(=O)NCC3CCCCC3)oc12` [Example 84, N-(cyclohexylmethyl)-8-(methylsulfonamido)-4-oxo-4H-chromene-2-carboxamide] are 316 nM, 50100 nM, 631 nM and 126 nM.
For the molecule `O=C(NCC1CCCCC1)c1cc(=O)c2cc(O)ccc2o1` [Example 6, N-(cyclohexylmethyl)-6-hydroxy-4-oxo-chromene-2-carboxamide], the EC50 in experiment [1] was 158 nM; in experiment [2], 15800 nM; in experiment [5], 126 nM; in experiment [3], 20 nM. For the same molecule, the IC50 in experiment [4] was 63.1 nM.
For `CCC(C)CNC(=O)c1cc(=O)c2cc(F)cc(O)c2o1` (stereo not drawn) [Example 76H, 6-fluoro-8-hydroxy-N-(2-methylbutyl)-4-oxo-chromene-2-carboxamide], the EC50 in experiment [1] is 251 nM. Also, the values for the IC50 in experiment [6] and in experiment [4] were 50100 nM and 251 nM, respectively.
As to `O=C(NCC1CCCCC1)c1cc(=O)c2cc(F)ccc2o1` [Example 31, N-(cyclohexylmethyl)-6-fluoro-4-oxo-chromene-2-carboxamide], the EC50 in experiment [1] is 316 nM; in experiment [2], 50100 nM; in experiment [5], 631 nM; in experiment [3], 126 nM. Besides, in experiment [4], the IC50 was 79.4 nM.
As for `O=C(NCC1(O)CCCCC1)c1cc(=O)c2cc(O)ccc2o1` [Example 13, 6-hydroxy-N-[(1-hydroxycyclohexyl)methyl]-4-oxo-chromene-2-carboxamide], the EC50 was 50.1 nM in experiment [1], 20000 nM in experiment [2], 120 nM in experiment [5] and 251 nM in experiment [3]. The IC50 in experiment [4] was 79.4 nM.
As for `O=C(NCC1CCCCC1)c1cc(=O)c2ccc(O)cc2o1` [Example 4, N-(cyclohexylmethyl)-7-hydroxy-4-oxo-chromene-2-carboxamide], the EC50 was 1260 nM in experiment [1], 50100 nM in experiment [2] and 1580 nM in experiment [5]. In experiment [4], the IC50 was 1000 nM.
